From patent publication US7316816B2, “Temperature and pH sensitive copolymers” (Agency for Science Technology and Research, priority 2004, dated 2008)

Columns and labels:
[1] = In vitro drug release by dialysis; type: physicochemical; settings: pH 7.4 and 6.0
Method: DOX release from the nanoparticles was studied at pH 6.0, 6.6 and 7.4. A certain amount of DOX-loaded freeze-dried nanoparticles was dispersed in 200 μL of the respective buffer solution and allowed to stabilize for 30 minutes before being placed in a dialysis membrane with a molecular weight cut-off of 2000 (Spectra/Por). The dialysis bag was then immersed in 25 mL of PBS with pH 6.0, 6.6 or 7.4 at 37° C. The samples were drawn at specific time intervals and the drug concentration was analyzed using the UV-VIS spectrophotometer as stated in paragraph A(vi) of the present example.

[2] = cited from earlier work

Row | effect of pH on release of free DOX from the dialysis bag [1] | Structure (SMILES) | pKa [2]
1 | no significant effect of pH | COc1cccc2c1C(=O)c1c(O)c3c(c(O)c1C2=O)C[C@@](O)(C(=O)CO)C[C@@H]3O[C@H]1C[C@H](N)[C@H](O)[C@H](C)O1 [DOX, doxorubicin] | 
2 |  | Nc1nc2ncc(CNc3ccc(C(=O)N[C@@H](CCC(=O)O)C(=O)O)cc3)nc2c(=O)[nH]1 [Folic acid] | ~5.4
